Values of other authors, collected in patent US20100278915A1, “COMPOSITIONS COMPRISING AN ANTIHISTAMINE, A[…] DE[…] EXTENDED RELEASE FORMULATIONS” (Atley Pharmaceuticals, Inc., priority 2009, published 2010).
Counter-ions that a name gives are not always drawn.

Tests used:
[1] = in vivo
[2] = within 24 hours of dosing
[3] = after a single oral dose

In the case of `CN(C)CCC(c1ccc(Cl)cc1)c1ccccn1` (stereo not shown) [Chlorpheniramine, Chlorpheniramine maleate], the “monodesmethyl and didesmethyl compounds excreted in the urine” value [1] is given as “up to 26%” and the “renal elimination, share of total excretion” value [1] is given as “approximately 50%”.

For `CN[C@@H](C)[C@@H](O)c1ccccc1` [Pseudoephedrine, pseudoephedrine], the “dose excreted unchanged in urine” value [2] is listed as “up to 90%”.

For `COc1ccc2c3c1O[C@H]1C(=O)CC[C@H]4[C@@H](C2)N(C)CC[C@]314` [Hydrocodone, hydrocodone], the “share of total excretion in the first 24 hours” value [3] is given as “About 70%”.
